Test results from patent US20150307938A1, “METHOD TO IDENTIFY A NOVEL CLASS OF IMMUNOLOGIC ADJUVANTS” (Lancell, L.L.C., priority 2011, published 2015).
Marks after values point to notes of the source that are not given here.

Tested on: full thickness skin
Assay: Whole genome array of skin gene expression after topical DBP (time course)
Format: in vivo, C57BL/6J mice
Protocol: Mice: C57BL/6J female mice obtained from The Jackson Laboratory were used between 8 and 12 weeks of age.
Treatment: Mice were untreated or treated topically on the dorsal side of each ear with […] of dibutylphthalate (DBP). At the designated time points after treatment, the animals were euthanized and the ears washed with 70% isopropanol. Full thickness skin was obtained from the dorsal side of both ears and placed immediately in liquid nitrogen. The time between euthanasia and placement of both skin samples in liquid nitrogen was less than 1 minute. Each sample for RNA extraction contained two dorsal ear skin samples obtained from a single mouse both of whose ears received the same treatment.
RNA Extraction: While in liquid nitrogen, the skin was pulverized with a motorized mortar and pestle (CryoGrinder), transferred by inversion of the mortar directly into 1.5 ml cryogenic vials (Nalgene) and stored in liquid nitrogen until RNA extraction. Total RNA from both ears was extracted by homogenization (Pro200) in TRIzol Reagent (Invitrogen) with 7.5 μg of RNase-free glycogen added to the mixture, according to the manufacturer's directions. The RNA was purified on a solid phase RNeasy MinElute Cleanup column (Qiagen) and eluted with 17 μL of RNase-free water. The samples were stored at −20° C. until use.
Quantification of RNA: RNA yields were quantified by UV absorption using a NanoDrop NG-1000 spectrophotometer, where 1 AU 260 equals 40 μg RNA/ml. Purity was estimated by the 260 and 280 nm absorbance ratio; values between 1.7 and 2.1 were considered acceptable.
Assessment of RNA Quality: The quality of sample RNA was assessed using a RNA 6000 LABCHIP Kit on an Agilent 2100 Bioanalyzer. The Bioanalyzer determines the integrity/purity of the RNA samples and permits the screening of total and mRNA sample degradation and ribosomal RNA contamination. An RNA 6000 ladder was also loaded on a specified well and used as a reference for data analysis and a built-in quality control measure. The quality and integrity of the RNA was determined through visual inspection of each electropherogram. In general, only samples with a RIN (RNA integrity number) of 7 or greater, as determined by the Bioanalyzer, were used for gene arrays. This quality control analysis was repeated following the labeling procedure to ensure that the probes were efficiently labeled and had the correct size before hybridization to the chips. All samples that were run on genome wide arrays were obtained as independent duplicates from two individual mice.
Microarray Data Interpretation: Gene expression was compared between untreated and treated total RNA samples. “Transition” data, which represent the change in expression level for a given gene, are presented as a “weighted difference.” Changes in gene expression level were considered to be significant when the adjusted p values were less than […]. The “gene expression signature” arbitrarily includes only those genes that were transcribed with a weighted increase of 2.0 or greater, which was sustained over the subsequent time points tested.
The weighted difference is a metric that takes into account both the variability between different time-points and the variability between replicates at the same time-point. The calculations are performed for each time-point transition, i.e., 30 minutes vs. 1 hour, 1 hour vs. 2 hours, etc. There are two steps to the calculation: the calculation of a modified Euclidean difference between the two time-points, and the calculation of the Euclidean difference between the replicates within each time-point. The first measure is an unweighted difference, while the final metric given in the spreadsheet “weights” this difference by taking into account the second measure.
In a Euclidean difference calculation, each data point is considered as a vector in a multi-dimensional space, and the actual straight-line distance between the data points is calculated. […]

With CCCCOC(=O)c1ccccc1C(=O)OCCCC [DBP, dibutylphthalate] the “Ier3 Change in Gene Expression (Weighted Difference)” value (30 min to 1 hr Transition) was 7.145, the “Il10ra Change in Gene Expression (Weighted Difference)” value (30 min to 1 hr Transition) was 0.6152 and the “Jun Change in Gene Expression (Weighted Difference)” value (30 min to 1 hr Transition) was 0.7234. The “Junb Change in Gene Expression (Weighted Difference)” value (30 min to 1 hr Transition) was 2.771, the “LOC100046066 Change in Gene Expression (Weighted Difference)” value (30 min to 1 hr Transition) was 2.144 and the “Madcam1 Change in Gene Expression (Weighted Difference)” value (30 min to 1 hr Transition) was 0.046. For the same compound, the “Med17 Change in Gene Expression (Weighted Difference)” value (30 min to 1 hr Transition) was 0.06201, the “Mkks Change in Gene Expression (Weighted Difference)” value (30 min to 1 hr Transition) was 0.2811 and the “Mndal Change in Gene Expression (Weighted Difference)” value (30 min to 1 hr Transition) was 0.3272. The “Myc Change in Gene Expression (Weighted Difference)” value (30 min to 1 hr Transition) was 1.895, the “N6amt2 Change in Gene Expression (Weighted Difference)” value (30 min to 1 hr Transition) was 0.0833 and the “Nr4a1 Change in Gene Expression (Weighted Difference)” value (30 min to 1 hr Transition) was 1.556. The “P2ry1 Change in Gene Expression (Weighted Difference)” value (30 min to 1 hr Transition) was 1.47, the “Prf1 Change in Gene Expression (Weighted Difference)” value (30 min to 1 hr Transition) was 0.5182 and the “Sik1 Change in Gene Expression (Weighted Difference)” value (30 min to 1 hr Transition) was 0.7241. The “Slc39a8 Change in Gene Expression (Weighted Difference)” value (30 min to 1 hr Transition) was 2.304, the “Tmed3 Change in Gene Expression (Weighted Difference)” value (30 min to 1 hr Transition) was −0.1953 and the “Zfp36 Change in Gene Expression (Weighted Difference)” value (30 min to 1 hr Transition) was 2.8. The “% Shared (DBP-induced genes also TLR-induced)” value (1 hr) was 69%, the “DBP Unique genes, number” value (1 hr) was 26 and the “DBP-Induced genes (≧2x Increased Expression), number” value (1 hr) was 83. For the same compound, the “TLR-Induced among DBP-induced genes, number” value (1 hr) was 57^#, the “Acot5 Change in Gene Expression (Weighted Difference)” value (1 hr to 2 hr Transition) was 12.15 and the “Akr1c18 Change in Gene Expression (Weighted Difference)” value (1 hr to 2 hr Transition) was −0.2471. For the same compound, the “Atp2c2 Change in Gene Expression (Weighted Difference)” value (1 hr to 2 hr Transition) was 0.331, the “Btg2 Change in Gene Expression (Weighted Difference)” value (1 hr to 2 hr Transition) was −0.01005 and the “Ccr4 Change in Gene Expression (Weighted Difference)” value (1 hr to 2 hr Transition) was −0.03096. For the same compound, the “Cdh10 Change in Gene Expression (Weighted Difference)” value (1 hr to 2 hr Transition) was −0.1519, the “Cish Change in Gene Expression (Weighted Difference)” value (1 hr to 2 hr Transition) was 0.9334 and the “Cox17 Change in Gene Expression (Weighted Difference)” value (1 hr to 2 hr Transition) was 0.1604. The “Cysltr1 Change in Gene Expression (Weighted Difference)” value (1 hr to 2 hr Transition) was −1.794, the “Egr1 Change in Gene Expression (Weighted Difference)” value (1 hr to 2 hr Transition) was −0.2127 and the “Egr2 Change in Gene Expression (Weighted Difference)” value (1 hr to 2 hr Transition) was −0.1057. For the same compound, the “Frk Change in Gene Expression (Weighted Difference)” value (1 hr to 2 hr Transition) was −0.2672, the “Gbp8 Change in Gene Expression (Weighted Difference)” value (1 hr to 2 hr Transition) was −1.039 and the “Gem Change in Gene Expression (Weighted Difference)” value (1 hr to 2 hr Transition) was 0.6484. For the same compound, the “Gimap7 Change in Gene Expression (Weighted Difference)” value (1 hr to 2 hr Transition) was 0.1331, the “Ier3 Change in Gene Expression (Weighted Difference)” value (1 hr to 2 hr Transition) was 0.7786 and the “Il10ra Change in Gene Expression (Weighted Difference)” value (1 hr to 2 hr Transition) was 0.1326. The “Jun Change in Gene Expression (Weighted Difference)” value (1 hr to 2 hr Transition) was −0.001533, the “Junb Change in Gene Expression (Weighted Difference)” value (1 hr to 2 hr Transition) was −0.0754 and the “LOC100046066 Change in Gene Expression (Weighted Difference)” value (1 hr to 2 hr Transition) was −0.8577. For the same compound, the “Madcam1 Change in Gene Expression (Weighted Difference)” value (1 hr to 2 hr Transition) was −0.04597, the “Med17 Change in Gene Expression (Weighted Difference)” value (1 hr to 2 hr Transition) was 0.1073 and the “Mkks Change in Gene Expression (Weighted Difference)” value (1 hr to 2 hr Transition) was −0.1657. The “Mndal Change in Gene Expression (Weighted Difference)” value (1 hr to 2 hr Transition) was 0.5733, the “Myc Change in Gene Expression (Weighted Difference)” value (1 hr to 2 hr Transition) was −0.01449 and the “N6amt2 Change in Gene Expression (Weighted Difference)” value (1 hr to 2 hr Transition) was −0.07791. The “Nr4a1 Change in Gene Expression (Weighted Difference)” value (1 hr to 2 hr Transition) was −0.4734, the “P2ry1 Change in Gene Expression (Weighted Difference)” value (1 hr to 2 hr Transition) was −0.5171 and the “Prf1 Change in Gene Expression (Weighted Difference)” value (1 hr to 2 hr Transition) was −0.3117. The “Sik1 Change in Gene Expression (Weighted Difference)” value (1 hr to 2 hr Transition) was 0.007769, the “Slc39a8 Change in Gene Expression (Weighted Difference)” value (1 hr to 2 hr Transition) was 1.188 and the “Tmed3 Change in Gene Expression (Weighted Difference)” value (1 hr to 2 hr Transition) was −0.2575. For the same compound, the “Zfp36 Change in Gene Expression (Weighted Difference)” value (1 hr to 2 hr Transition) was 0.1025 and the “% Shared (DBP-induced genes also TLR-induced)” value (2 hr) was 63%.
